Test system: female BALB/c or CD-1 mice
Assay: Intestinal motility model in mice (gastrointestinal transit of red dye)
Format: in vivo
Conditions: mice fasted 24 h, red dye 1 h after treatment, measured 20 min later
Description: Intestinal Motility Model:
An intestinal motility model in mice may be used to evaluate of antimuscarinic compounds of formulae I-V as potential treatment for irritable bowel syndrome. In the studies, female BALB/c or CD-1 mice are fasted for 24 hours and then treated orally with one or more compounds of formulae I-V or vehicle. One hour after of treatment, the mice receive a red dye mixture via gastric gavage. Twenty minutes later, the animals are euthanized and the small intestine is removed. Gastrointestinal transit (GIT) is calculated using the measured length of the small intestine from the pyloric sphincter to the ileocecal junction and the distance traveled by the red dye front. Percent inhibition is indicated above bars.

| SMILES | inhibition of gastrointestinal transit (GIT) (oral dose 30 mg/kg) | inhibition of gastrointestinal transit (GIT) (oral dose 60 mg/kg) | inhibition of gastrointestinal transit (GIT) (oral dose 10 mg/kg) |
| --- | --- | --- | --- |
| NC(=O)C(c1ccccc1)(c1ccccc1)[C@@H]1CCN(CCc2ccc3c(c2)CCO3)C1 [reference compound] | about 15% | about 15% | – |
| C[N+]1(CCc2ccc3c(c2)CCO3)CC[C@@H](C(C(N)=O)(c2ccccc2)c2ccccc2)C1.[I-] (stereo partly drawn) [Example 27, (3S)-3-(2-amino-2-oxo-1,1-diphenylethyl)-1-[2-(2,3-dihydro-1-benzofuran-5-yl)ethyl]-1-methylpyrrolidinium iodide] | 20% | 30% | 13% |
| Cc1ccc(O)c([C@H](CC[N+](C)(C(C)C)C(C)C)c2ccccc2)c1 [Example 3, (3R)-3-(2-Hydroxy-5-methylphenyl)-N,N-diisopropyl-N-methyl-3-phenylpropan-1-aminium bromide] | 29% | 28% | 17% |

Source: patent US20040220224A1, “Method of treating irritable bowel syndrome” (Pfizer Inc, priority 2003, published 2004)
